According to patent US20250051285A1, “C[…] FORM OF EP4 ANTAGONIST” (Eisai R&D Management Co., Ltd., priority 2021, published 2025):

Columns and labels:
Assay type in all cases: physicochemical
[1] = Dissociation constant (pKa) by capillary electrophoresis; details: capillary electrophoresis (CE), buffer solution I = 0.05, 25° C.
[2] = Solubility in organic solvents and water
[3] = Solubility in aqueous solutions
[4] = Hygroscopicity by dynamic vapor sorption (DVS)
Experimental: Hygroscopicity of crystalline free acid form of Compound 1 was measured using the dynamic vapor sorption (DVS) method.

Question: Which pKa [1] does the source give for `C[C@H](NC(=O)c1c(C(F)F)nn(C)c1Oc1cccc(C(F)(F)F)c1)c1ccc(C(=O)O)cc1` [Compound 1, (S)-4-(1-(3-(difluoromethyl)-1-methyl-5-(3-(trifluoromethyl)phenoxy)-1H-pyrazole-4-carboxamido)ethyl)benzoic acid] here?
Answer: The pKa was 4.1.

Question: What about the “Solubility in 2-propanol” value ([2]; 2-propanol) of the same molecule?
Answer: The value was “ethanol and ethyl acetate, slightly soluble in 2-”.

Question: What about the Solubility in acetonitrile ([2]; acetonitrile) of the same molecule?
Answer: The Solubility in acetonitrile was “soluble”.

Question: What about the Solubility in ethanol ([2]; ethanol) of the same molecule?
Answer: Its Solubility in ethanol is “sparingly soluble”.

Question: And the “Solubility in ethyl acetate” value ([2]; ethyl acetate)?
Answer: Its value is “sparingly soluble”.

Question: And the Solubility in heptane ([2]; heptane)?
Answer: The Solubility in heptane was “practically insoluble in water and heptane”.

Question: What about the Solubility in water ([2]; water) of the same molecule?
Answer: Its Solubility in water is “practically insoluble in water and heptane”.

Question: And the “Solubility in 0.1N HCl” value ([3]; 0.1N HCl)?
Answer: Its value is 0.3, pH 9) and practically insoluble in 0.1N HCl and.

Question: And the “Solubility in Britton-Robinson buffer pH 9” value ([3]; Britton-Robinson buffer, I = 0.3, pH 9)?
Answer: Its value is “Very slightly soluble in Britton-Robinson buffer (I =”.

Question: And the Hygroscopicity ([4]; DVS adsorption and desorption isotherm)?
Answer: Its Hygroscopicity is “Non-hygroscopic”.

Question: What about the “Weight change in DVS” value ([4]; relative humidity 5% to 95% RH at 25° C.) of the same molecule?
Answer: Its value is “No significant weight change”.
